Measured values taken from patent US12577252B2, “Drug for the treatment of diseases caused by bacteria” (priority 2020, dated 2026).

Tests used:
S pyogenes = experiment: MIC by serial dilution (CLSI), firmicutes bacteria; assay type: cell-based, Streptococcus pyogenes; settings: fresh clinical isolate
Description: (§1) Determination of the antimicrobial activity of substances was carried out on dense and liquid nutrient media. To assess the minimum inhibitory concentration (MIC), the serial dilution method was used, according to the recommendations of CLSI (Clinical Laboratories and Standards Institute, formerly National Committee for Clinical Laboratory Standards) (Clinical Laboratories and Standards Institute. Methods for Dilution Antimicrobial Susceptibility Tests for Bacteria That Grow Aerobically; Approved Standard—Seventh Edition Document M7-A7 CLSI, Wayne, Pa., 2006; Clinical Laboratories and Standards Institute).
(§2) The assessment of the antimicrobial activity of substances against firmicute bacteria was performed on fresh clinical isolates of strains of Streptococcus pyogenes, Streptococcus mitis, Bacillus subtilis, Bacillus cereus, Corynebacterium ulcerans, Micrococcus luteus.

M. lutteus = experiment: MIC by serial dilution (CLSI), firmicutes bacteria; assay type: cell-based, Micrococcus luteus; settings: fresh clinical isolate
Description: as §1, §2

U. urealyticum = experiment: MIC, gracilicutes and wall-less bacteria; assay type: cell-based, Ureaplasma urealyticum; settings: fresh clinical isolate
Description: as §1, with “Institute). The study of the effect on strains was performed on fresh clinical isolates of Haemophilus influenzae, Neisseria meningitides, Ureaplasma urealyticum strains, as well as on the Escherichia coli ATCC29592 strain.” for “Institute).”

S. aureus = experiment: Clinical treatment of tonsillitis, eradication of the pathogen; assay type: in vivo, Staphylococcus aureus; settings: for Eradication, %: S. aureus tonsillitis patients
Description: (§3) This pathology was chosen by us as one of the above lists to confirm the effectiveness and practical applicability of the claimed compound. The study was performed on two groups of patients, totaling 138 people, who received the drug enterally twice a day at doses from 500 mg to 2000 mg. The compound was administered as a pharmaceutical composition containing Compound 1a in acetate form in an isotonic solution of a pharmaceutically acceptable sodium chloride carrier.

C. ulcerans = experiment: MIC by serial dilution (CLSI), firmicutes bacteria; assay type: cell-based, Corynebacterium ulcerans; settings: fresh clinical isolate
Description: as §1, §2

S. aureus SA77 = experiment: MIC, S. aureus strains with multiple resistance; assay type: cell-based, Staphylococcus aureus; settings: SA77, VRSA strain
Description: as §1
(§4) The study of the effect of Compound 1a on strains with multiple resistance to existing antibiotics was performed on fresh clinical isolates of strains: S. aureus VT-V-18, S. aureus VT-E-25 S. aureus VT-A-199 and S. aureus VT-P-82, as well as S. aureus strain American Type Culture Collection (Rockville, Md.) and strains S. aureus SA77 and S. aureus SA85,

S. aureus SA85 = experiment: MIC, S. aureus strains with multiple resistance; assay type: cell-based, Staphylococcus aureus; settings: SA85, VRSA strain
Description: as §1, §4

S. aureus VT-E-25 = experiment: MIC, S. aureus strains with multiple resistance; assay type: cell-based, Staphylococcus aureus; settings: VT-E-25, MRSA strain, clinical isolate
Description: as §1, §4

S. aureus VT-P-82 = experiment: MIC, S. aureus strains with multiple resistance; assay type: cell-based, Staphylococcus aureus; settings: VT-P-82, MRSA strain, clinical isolate
Description: as §1, §4

S. aureus VT-A-199 = experiment: MIC, S. aureus strains with multiple resistance; assay type: cell-based, Staphylococcus aureus; settings: VT-A-199, MRSA strain, clinical isolate
Description: as §1, §4

S. aureus VT-V-18 = experiment: MIC, S. aureus strains with multiple resistance; assay type: cell-based, Staphylococcus aureus; settings: VT-V-18, MRSA strain, clinical isolate
Description: as §1, §4

S. mitis = experiment: MIC by serial dilution (CLSI), firmicutes bacteria; assay type: cell-based, Streptococcus mitis; settings: fresh clinical isolate
Description: as §1, §2

N. meningitides = experiment: MIC, gracilicutes and wall-less bacteria; assay type: cell-based, Neisseria meningitides; settings: fresh clinical isolate
Description: as §1, with “Institute). The study of the effect on strains was performed on fresh clinical isolates of Haemophilus influenzae, Neisseria meningitides, Ureaplasma urealyticum strains, as well as on the Escherichia coli ATCC29592 strain.” for “Institute).”

H. influenzae [1] = experiment: MIC of 1a and its combinations with antimicrobials, serial dilutions; assay type: cell-based, Haemophilus influenzae; settings: liquid nutrient medium, substance alone
Description: We used a strain of H. influenzae grown on a liquid nutrient medium. The minimum inhibitory concentration was determined by the method of serial dilutions.

S. aureus ATCC 29213 = experiment: MIC by serial dilution (CLSI), S. aureus ATCC 29213; assay type: cell-based, Staphylococcus aureus
[2] = tested on: Escherichia coli ATCC29592; experiment: MIC, gracilicutes and wall-less bacteria; assay type: cell-based; settings: E. coli ATCC29592
Description: as §1, with “Institute). The study of the effect on strains was performed on fresh clinical isolates of Haemophilus influenzae, Neisseria meningitides, Ureaplasma urealyticum strains, as well as on the Escherichia coli ATCC29592 strain.” for “Institute).”

B. cereus = experiment: MIC by serial dilution (CLSI), firmicutes bacteria; assay type: cell-based, Bacillus cereus; settings: fresh clinical isolate
Description: as §1, §2

[3] = tested on: Staphylococcus aureus ATCC 38591; experiment: Acute generalized infection in C57BL6 mice, death of mice; assay type: in vivo; settings: 10 mice
Description: To study the chemotherapeutic efficacy, a model of acute generalized infection in small animals was used. C57BL6 mice were intraperitoneally infected with Staphylococcus aureus ATCC 38591 at a dose of 1×10^8 microbial cells. The infectious dose was established in preliminary studies. Mice infected with the same dose of microbial culture but not treated served as controls.
The preparations were dissolved in an isotonic sodium chloride solution and substance 1a or Lincomycin was administered. 2 hours after infection, the drugs were administered orally daily at doses of 10 to 100 mg/kg, 2 times a day.
The death of mice was taken into account daily for 7 days.

L. monocytogenes = experiment: MIC by serial dilution (CLSI), firmicutes bacteria; assay type: cell-based
H. influenzae [4] = experiment: MIC, gracilicutes and wall-less bacteria; assay type: cell-based, Haemophilus influenzae; settings: fresh clinical isolate, Table 2
Description: as §1, with “Institute). The study of the effect on strains was performed on fresh clinical isolates of Haemophilus influenzae, Neisseria meningitides, Ureaplasma urealyticum strains, as well as on the Escherichia coli ATCC29592 strain.” for “Institute).”

S. pyogenes = experiment: Clinical treatment of tonsillitis, eradication of the pathogen; assay type: in vivo, Streptococcus pyogenes; settings: for Eradication, %: S. pyogenes tonsillitis patients
Description: as §3

[5] = tested on: S. aureus ANCC29213 biofilms; experiment: Survival of bacteria in biofilms (CFU count); assay type: cell-based, Staphylococcus aureus; settings: 10 μg/ml; for Number of CFU: 24 h biofilm, incubated 24 hours at 37° C.
Description: S. aureus ANCC29213 bacteria were grown in a 24-well plateau in LB medium for 24 hours at 37° C. After that, Compound 1a and lincomycin (8 wells for each preparation and control without preparations) were added to the wells at final concentrations of 10 μg/ml and incubated for 24 hours at 37° C. After incubation, the medium was removed, the biofilms were washed with a sterile solution of isotonic sodium chloride, the biofilms were removed from the bottom of the wells, resuspended in isotonic sodium chloride solution, and the number of colony forming units (CFU) was determined by the method of serial dilutions.

B. subtilis = experiment: MIC by serial dilution (CLSI), firmicutes bacteria; assay type: cell-based, Bacillus subtilis; settings: fresh clinical isolate
Description: as §1, §2

[6] = tested on: various strains of S. aureus; experiment: Effects on various strains of S. aureus (MRSA, VRSA, MSSA), overall; assay type: cell-based, Staphylococcus aureus; settings: S. aureus strains of Table 3
Description: as §1, §4

[7] = tested on: methicillin- and vancomycin-resistant strains of Staphylococcus aureus and Streptococcus spp; settings: literature statement; cited from earlier work
[8] = 10 mg/kg orally 2 times a day, day 2
[9] = 10 mg/kg orally 2 times a day, day 4
[10] = 20 mg/kg orally 2 times a day, day 3
[11] = 20 mg/kg orally 2 times a day, day 4
[12] = Haemophilus influenzae, read-out: MIC

## CC(=O)[O-].O=c1[nH]c(=O)c2cc3cc(Br)cc(Br)c3[o+]c2[nH]1 [Compound 1a, 7,9-dibromo-2,4-dioxo-1,2,3,4-tetrahydrochromeno[2,3-d]-pyrimidinium-10 acetate]
S pyogenes
  MIC: 0.1 µg/mL
M. lutteus
  MIC: 1.0 µg/mL
U. urealyticum
  MIC: 10.0 µg/mL
S. aureus; day 4, enterally twice a day
  Eradication, %: 85.14%
  Eradication, Number of patients: 63
S. aureus; day 8
  Eradication, %: 91.89%
  Eradication, Number of patients: 68
S. aureus; day 14
  Eradication, %: 94.59%
  Eradication, Number of patients: 70
C. ulcerans
  MIC: 0.5 µg/mL
S. aureus SA77
  MIC: 0.5 µg/mL
S. aureus SA85
  MIC: 1.0 µg/mL
S. aureus VT-E-25
  MIC: 1.0 µg/mL
S. aureus VT-P-82
  MIC: 2.0 µg/mL
S. aureus VT-A-199
  MIC: 1.0 µg/mL
S. aureus VT-V-18
  MIC: 0.5 µg/mL
S. mitis
  MIC: 0.1 µg/mL
N. meningitides
  MIC: 10.0 µg/mL
H. influenzae [1]
  MIC: 10.0 µg/mL
S. aureus ATCC 29213; ATCC 29213, strain MSSA, Table 3
  MIC: 0.5 µg/mL
S. aureus ATCC 29213; S. aureus ATCC 29213, Table 1
  MIC: 0.5 µg/mL
[2]
  MIC: 20.0 µg/mL
B. cereus
  MIC: 1.0 µg/mL
[3]; [8]
  Mice death: 1
[3]; [9]
  Mice death: 1
[3]; 10 mg/kg orally 2 times a day, day 5
  Mice death: 2
[3]; 10 mg/kg orally 2 times a day, day 6
  Mice death: 1
[3]; [10]
  Mice death: 1
[3]; [11]
  Mice death: 1
[3]; 20 mg/kg orally 2 times a day, day 5
  Mice death: 2
L. monocytogenes
  MIC: 1.0 µg/mL
H. influenzae [4]
  MIC: 10.0 µg/mL
S. pyogenes; day 4
  Eradication, %: 94.37%
  Eradication, Number of patients: 67
S. pyogenes; day 8
  Eradication, %: 95.77%
  Eradication, Number of patients: 68
S. pyogenes; day 14
  Eradication, %: 95.77%
  Eradication, Number of patients: 68
[5]; 24 hours
  reduction of the number of bacteria capable of growth in biofilms: 1000 times
[5]
  Number of CFU: 4.0 ± 1.0 × 10^5 CFU
B. subtilis
  MIC: 1.0 µg/mL
[6]
  Resistance: Not detected
  efficacy on methicillin/vancomycin-resistant versus susceptible strains: did not differ

## O=C([O-])CCC(=O)[O-].O=c1[nH]c(=O)c2cc3cc(Br)cc(Br)c3[o+]c2[nH]1.O=c1[nH]c(=O)c2cc3cc(Br)cc(Br)c3[o+]c2[nH]1 [Compound 1b, 7,9-dibromo-2,4-dioxo-1,2,3,4-tetrahydrochromeno[2,3-d]-pyrimidinium-10 succinate]
S pyogenes
  MIC: 2.0 µg/mL
M. lutteus
  MIC: 2.0 µg/mL
U. urealyticum
  MIC: 20.0 µg/mL
C. ulcerans
  MIC: 2.0 µg/mL
S. mitis
  MIC: 2.0 µg/mL
N. meningitides
  MIC: 20.0 µg/mL
S. aureus ATCC 29213; S. aureus ATCC 29213, Table 1
  MIC: 1.0 µg/mL
[2]
  MIC: 30.0 µg/mL
B. cereus
  MIC: 4.0 µg/mL
L. monocytogenes
  MIC: 4.0 µg/mL
H. influenzae [4]
  MIC: 20.0 µg/mL
B. subtilis
  MIC: 2.0 µg/mL

## C[C@H]1COc2c(N3CCN(C)CC3)c(F)cc3c(=O)c(C(=O)O)cn1c23 [Levofloxacin]
H. influenzae [1]; [12]
  MIC: 0.05 µg/mL

## CCC[C@@H]1C[C@@H](C(=O)N[C@@H]([C@H]2O[C@H](SC)[C@H](O)[C@@H](O)[C@H]2O)[C@@H](C)O)N(C)C1 [Lincomycin]
[3]; [8]
  Mice death: 2
[3]; [9]
  Mice death: 1
[3]; 10 mg/kg orally 2 times a day, fifth day, head printed 1
  Mices death: 2
[3]; 10 mg/kg orally 2 times a day, sixth day column, head printed 2
  Mices death: 1
[3]; [10]
  Mice death: 1
[3]; [11]
  Mice death: 1
[3]; 20 mg/kg orally 2 times a day, fifth day, head printed 1
  Mices death: 3
[3]; 50 mg/kg orally 2 times a day, day 3
  Mices death: 1
[3]; 50 mg/kg orally 2 times a day, day 4
  Mices death: 1
[3]; 50 mg/kg orally 2 times a day, fifth day, head printed 1
  Mices death: 2
[7]
  effect on MRSA and VRSA strains: no effect
[5]; 24 hours
  change of the number of CFUs in biofilms: does not change the number of CFUs
[5]
  Number of CFU: 2.0 ± 1.0 × 10^8 CFU

## CC1(C)S[C@@H]2[C@H](NC(=O)COc3ccccc3)C(=O)N2[C@H]1C(=O)O [Phenoxymethylpenicillin, reference compound]
S. aureus; day 4, enterally twice a day
  Eradication, %: 4.11%
  Eradication, Number of patients: 3
S. aureus; day 8
  Eradication, %: 9.59%
  Eradication, Number of patients: 7
S. aureus; day 14
  Eradication, %: 13.70%
  Eradication, Number of patients: 10
S. pyogenes; day 4
  Eradication, %: 10.14%
  Eradication, Number of patients: 7
S. pyogenes; day 8
  Eradication, %: 11.59%
  Eradication, Number of patients: 8
S. pyogenes; day 14
  Eradication, %: 13.04%
  Eradication, Number of patients: 9

## CN(C)[C@@H]1C(O)=C(C(N)=O)C(=O)[C@@]2(O)C(O)=C3C(=O)c4c(O)cccc4[C@@](C)(O)[C@H]3C[C@@H]12 [Tetracycline]
H. influenzae [1]; [12]
  MIC: 2 µg/mL
